Consider 13 molecules from PMC10880585 (ACS infectious diseases, 2023).

Series [1] relates to P. falciparum strain 3D7. The experiment in a line: P. falciparum growth inhibition assay. In kind it is cell-based, Plasmodium falciparum. Conditions: read-out: Pf IC50.
For series [2], the target named is T1, P. falciparum DXR (Plasmodium falciparum, UniProt O96693).
T1 sequence (O96693 73-488): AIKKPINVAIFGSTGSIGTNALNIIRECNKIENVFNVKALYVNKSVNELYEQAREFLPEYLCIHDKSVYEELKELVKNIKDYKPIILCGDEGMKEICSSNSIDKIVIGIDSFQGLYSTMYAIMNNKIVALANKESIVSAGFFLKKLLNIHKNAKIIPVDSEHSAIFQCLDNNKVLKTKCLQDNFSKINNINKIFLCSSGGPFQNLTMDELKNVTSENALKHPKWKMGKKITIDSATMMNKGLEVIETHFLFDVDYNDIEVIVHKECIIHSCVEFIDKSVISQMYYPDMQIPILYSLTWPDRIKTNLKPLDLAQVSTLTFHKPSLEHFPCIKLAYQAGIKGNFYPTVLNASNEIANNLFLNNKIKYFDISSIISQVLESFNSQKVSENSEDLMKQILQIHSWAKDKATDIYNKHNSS
Nature of the series: biochemical.

Series [3] addresses T1, P. falciparum DXR.
Series [4] relates to HAD1 mutant P. falciparum strain. The experiment in a line: Growth inhibition of had1 mutant P. falciparum. In kind it is cell-based, Plasmodium falciparum. The following applies: had1 mutant vs wild-type 3D7.
The subject of another series is HepG2 cells. Nature of the series: HepG2 cytotoxicity assay. Conditions: for pIC50: Homo sapiens, HepG2, 24 h, read-out: HepG2 IC50; for cytotoxicity against HepG2: result in words.
Series [5] in a line: Metabolic stability in mouse liver microsomes.
Series [6] has as its system P. falciparum strain 3D7. Nature of the series: IPP rescue of P. falciparum growth inhibition. Conditions: 250 μM IPP added to culture media, 72 h.
For series [7] the following is noted: following iv dosing; cited from earlier work.
The mark [8] stands for this setting: Plasmodium falciparum, 3D7, Erythrocyte, 72 h.

pIC50: −log10 of the molar value. Read-outs that look alike come from different tables or passages of the source.

With `CCOP(=O)(/C=C/CN(O)C(=O)c1ccccc1)OCC` [10a, Diethyl [(1E)-3-(N-Hydroxy-1-phenylformamido)prop-1-en-1-yl]phosphonate], the pIC50 in the series with P. falciparum strain 3D7 [1] (setting [8]) was < 3.50.

For `CCOP(=O)(/C=C/CN(O)C(=O)Cc1ccccc1)OCC` [10b, Diethyl [(1E)-3-(N-Hydroxy-2-phenylacetamido)prop-1-en-1-yl]phosphonate], the pIC50 with P. falciparum strain 3D7 [1] (setting [8]) is 3.47.

As for `CCOP(=O)(/C=C/CN(O)C(=O)CCc1ccccc1)OCC` [10c, Diethyl [(1E)-3-(N-Hydroxy-3-phenylpropanamido)prop-1-en-1-yl]phosphonate], in the series with P. falciparum strain 3D7 [1] (setting [8]), the negative-log IC50 (pIC50) is < 3.53.

Turning to `CCOP(=O)(/C=C/CN(O)C(=O)CCCc1ccccc1)OCC` [10d, Diethyl [(1E)-3-(N-Hydroxy-4-phenylbutanamido)prop-1-en-1-yl]phosphonate], in the series with P. falciparum strain 3D7 [1] (setting [8]), the negative logarithm of the IC50 (pIC50) was 4.51.

As for `O=C(Cc1ccccc1)N(O)C/C=C/P(=O)(O)O` [11b, Sodium Hydrogen [(1E)-3-(N-Hydroxy-2-phenylacetamido)prop-1-en-1-yl]phosphonate], the figures for the pIC50 with P. falciparum strain 3D7 [1] (setting [8]) and against P. falciparum DXR [2] were 6.33 and 6.77, respectively.

Regarding `O=C(CCc1ccccc1)N(O)C/C=C/P(=O)(O)O` [11c, Sodium Hydrogen [(1E)-3-(N-hydroxy-3-phenylpropanamido)prop-1-en-1-yl]phosphonate], the negative logarithm of the IC50 (pIC50) in the series with P. falciparum strain 3D7 [1] (setting [8]) is 4.97; at P. falciparum DXR [2], 5.87.

In the case of `O=C(CCCc1ccccc1)N(O)C/C=C/P(=O)(O)O` [11d, Sodium Hydrogen [(1E)-3-(N-Hydroxy-4-phenylbutanamido)prop-1-en-1-yl]phosphonate], the pIC50 in the series with P. falciparum strain 3D7 [1] (setting [8]) was 5.30; on P. falciparum DXR [3] (read-out: Pf DXR IC50), 6.05.

As for `CC(C)(C)C(=O)OCOP(=O)(/C=C/CN(O)C(=O)c1ccccc1)OCOC(=O)C(C)(C)C` [13a, [({[(2,2-Dimethylpropanoyl)oxy]methoxy}[(1E)-3-(N-hydroxy-1-phenylformamido)-prop-1-en-1-yl]phosphoryl)oxy]-methyl 2,2-dimethylpropanoate], in the series on P. falciparum strain 3D7 [1] (setting [8]), the negative-log IC50 (pIC50) was 6.70. Moreover, in series [4], the “resistance of parasites with elevated intracellular DXP” value (shortened to “resistance of parasites”) was “resistant”. In the series on HepG2 cells, the pIC50 was < 4.30 and the “cytotoxicity against HepG2” value is listed as “non-toxic”. For the same molecule, the half-life at 1 μM in series [5] (mouse, liver microsomes, pH 7.4) is < 5 min. Further, the “rescue of treated parasites by IPP” value in the series with P. falciparum strain 3D7 [6] is recorded as “rescued”.

With `CC(C)(C)C(=O)OCOP(=O)(/C=C/CN(O)C(=O)Cc1ccccc1)OCOC(=O)C(C)(C)C` [13b, [({[(2,2-Dimethylpropanoyl)oxy]methoxy}[(1E)-3-(N-hydroxy-2-phenylacetamido)prop-1-en-1-yl]phosphoryl)oxy]-methyl 2,2-Dimethylpropanoate], the negative-log IC50 (pIC50) in the series with P. falciparum strain 3D7 [1] (setting [8]) is 6.52.

For `CC(C)(C)C(=O)OCOP(=O)(/C=C/CN(O)C(=O)CCCc1ccccc1)OCOC(=O)C(C)(C)C` [13d, [({[(2,2-Dimethylpropanoyl)oxy]methoxy}[(1E)-3-(N-hydroxy-4-phenylbutanamido)prop-1-en-1-yl]phosphoryl)-oxy]methyl 2,2-Dimethylpropanoate], in the series on P. falciparum strain 3D7 [1] (setting [8]), the pIC50 is 5.34.

In the case of `O=CN(O)CCCP(=O)(O)O` [compound 1, Fosmidomycin, reference compound], the pIC50 in the series on P. falciparum strain 3D7 [1] (setting [8]) was 5.99. Besides, the “resistance of parasites” value in series [4] is recorded as “higher resistance”. Further, the renal excretion in series [7] is on record as 85%. Further, in the series on P. falciparum strain 3D7 [6], the “rescue of treated parasites by IPP” value is on record as “rescued”.

`CC(=O)N(O)CCCP(=O)(O)O` [compound 2, FR-900098, reference compound]: in the series with P. falciparum strain 3D7 [1] ([…], 3 days, PicoGreen), the pIC50 is 6.29.

For `N.N.O=C(c1ccccc1)N(O)C/C=C/P(=O)(O)O` [compound 11a, Diammonium [(1E)-3-(N-Hydroxy-1-phenylformamido)-prop-1-en-1-yl]phosphonate], the pIC50 in the series with P. falciparum strain 3D7 [1] (setting [8]) is 6.43; in the series with HepG2 cells it was < 4.30. Further, in series [4], the “resistance of parasites” value is reported as “resistant”. In addition, the “improvement in activity against the enzyme” value at P. falciparum DXR [3] (11a vs saturated compound 4) is listed as 2 fold. Besides, in the series on HepG2 cells, the “cytotoxicity against HepG2” value is “non-toxic”. Further, the “time stable in MLM” value in series [5] (mouse liver microsomes) is listed as “over 1 h”. The “rescue of treated parasites by IPP” value in the series on P. falciparum strain 3D7 [6] is “rescued”.
